SMILES strings stand for the structures. Numbers after ± are expanded uncertainties.

From the NIST ThermoML archive (doi:10.1016/j.jct.2009.06.003) come the findings set out here.

For data set [1] the following is noted: DTA.
A short description of data set [2]: Molar enthalpy of transition or fusion. The note with it: DSC.

For the compound `CCCC[n+]1ccc(C)cc1.O=S(=O)([N-]S(=O)(=O)C(F)(F)F)C(F)(F)F`, the Normal melting temperature in data set [1] (Crystal) is 18.2 ± 0.5 °C. Also, the Glass transition temperature in data set [1] was -77.2 ± 2 °C. Moreover, the “Molar enthalpy of transition or fusion” value in data set [2] (Crystal) amounted to 21.9 ± 0.66 kJ/mol.
On to `Cc1cc[n+](C)cc1.Cc1ccc(S(=O)(=O)[O-])cc1` [1,4-dimethylpyridinium 4-methylbenzenesulfonate], for which the Normal melting temperature in data set [1] (Crystal) stood at 151.7 ± 0.5 °C. For the same compound, in data set [2] (Crystal), the “Molar enthalpy of transition or fusion” value amounted to 30.9 ± 0.88 kJ/mol.
In the case of `CCCC[n+]1cccc(C)c1.Cc1ccc(S(=O)(=O)[O-])cc1` [1-butyl-3-methylpyridinium 4-methylbenzenesulfonate], the Normal melting temperature in data set [1] (Crystal) amounted to 50.6 ± 0.5 °C. For the same compound, in data set [1], the Glass transition temperature is -53.0 ± 2 °C. Also, the “Molar enthalpy of transition or fusion” value in data set [2] (Crystal) was determined as 1.53 ± 0.17 kJ/mol.
As to `CCn1cc[n+](C)c1.N#C[S-]` [1-ethyl-3-methylimidazolium thiocyanate], the Glass transition temperature in data set [1] is -97.5 ± 2 °C.
As for `CCCCCCn1cc[n+](C)c1.N#C[S-]` [1-hexyl-3-methylimidazolium thiocyanate], the Glass transition temperature in data set [1] was -83.2 ± 2 °C.
As for `CCCCCC[n+]1cccc(C)c1.Cc1ccc(S(=O)(=O)[O-])cc1` [1-hexyl-3-methylpyridinium 4-methylbenzenesulfonate], the Normal melting temperature in data set [1] (Crystal) was determined as 56.2 ± 0.5 °C. For the same compound, the Glass transition temperature in data set [1] is -39 ± 2 °C. Further, the “Molar enthalpy of transition or fusion” value in data set [2] (Crystal) is 10.1 ± 0.37 kJ/mol.
Turning to `Cc1cc(C)[nH+]c(C)c1.Cc1ccc(S(=O)(=O)[O-])cc1` [2,4,6-trimethylpyridinium 4-methylbenzenesulfonate], the Normal melting temperature in data set [1] (Crystal) was determined as 130.6 ± 0.5 °C. Moreover, the Glass transition temperature in data set [1] is -7.8 ± 2 °C. Further, the “Molar enthalpy of transition or fusion” value in data set [2] (Crystal) was determined as 22.9 ± 0.68 kJ/mol.
`CC[S+](CC)CC.O=S(=O)([N-]S(=O)(=O)C(F)(F)F)C(F)(F)F` [triethylsulfonium bis((trifluoromethyl)sulfonyl)imide]: in data set [1] (Crystal 1), the Normal melting temperature is -10.3 ± 0.5 °C. In addition, the Triple point temperature in data set [1] (Crystal 2) is recorded as 241.1 ± 2 K. Besides, the Glass transition temperature in data set [1] was -73.8 ± 2 °C. For the same compound, the “Molar enthalpy of transition or fusion” value in data set [2] (Crystal 1) was 6.98 ± 0.28 kJ/mol; in data set [2] (Crystal 2), 9.41 ± 0.34 kJ/mol.
